Results: PMC11927960, “Multiparameter ranking of carbazoles for anti-trypanosome lead discovery” (Frontiers in drug discovery, 2024)

Assays:
[1] = test system: protein synthesis in Trypanosoma brucei; test: Protein synthesis (HPG incorporation); assay type: cell-based; settings: for Protein Synthesis affected: DTC50 as printed in Table S3; for Effect on protein synthesis: DTC90; for Residual Translation: DTC90 of curaxin 15 min, then 60 min HPG, 1 minus inhibition vs DMSO
Description: FIGURE 3 Effect of curaxins on protein synthesis in Trypanosoma brucei: T. b. brucei (5 × 10^5/mL) was treated with DMSO (D: 0.1%), DTC90 of CBL0174 ([…]), or CBL0187 (600 nM) for 15 min, followed by 60-min incubation with L-Homopropargylglycine (HPG; 4 μM). Incorporated HPG was clicked to azide-Alexa Fluor-488. […] (A) Proteins were transferred to the PVDF membrane and stained for total protein (using LI-COR® Revert™ 700 Total Protein Stain). (B) The membrane was blocked with Intercept® (PBS) blocking buffer and reacted with azide-PEG3-biotin conjugate that was detected with Streptavidin IRDye® 800CW (1: 2500 dilution). (C) Quantitation of HPG signal normalized to total protein loaded per lane. Statistical significance of differences in mean total HPG incorporation (normalized to total protein) was determined with Student’s t-test.
Mid-logarithmic phase trypanosomes were rinsed and resuspended (5×10^5 cells/mL) in methionine-free RPMI supplemented with 10% fetal bovine serum (FBS). Cells were treated with DTC25 or DTC90 concentrations of CBL0174 or CBL0187 for 15 min, followed by 1-h incubation with 4 μM (final concentration) L-Homopropargylglycine (HPG) (Cayman Chemical). Cells were washed with PBS-G (PBS containing 10 mM glucose), pelleted, and resuspended (~5 × 10^6 cells) in 50 μL of permeabilization buffer (50 mM HEPES pH 7.4, 0.025% NP-40) on ice for 30 min. The pellet was mixed with 50 μL “Click-iT reaction” cocktail (20 mM Tris buffer, pH 7.4, 5 mM CuSO4, 300 mM ascorbic acid, 140 mM NaCl, and 17.5 μM azide-PEG-biotin) at room temperature for 1 h. […] HPG-labeled proteins were detected with Streptavidin IRDye® 800CW (1: 2500) and visualized on a Li-Cor® Odyssey CLx near-infrared fluorescence imaging system ([Sanz-Rodriguez et al., 2022]).

T. brucei Lister427 = test: Delayed trypanocidal assay (6 h exposure, wash-off); assay type: cell-based, Trypanosoma brucei; settings: for DTC25 (Figure 1) / DTC50 (Figure 1) / DTC90 (Figure 1): 5 × 10^5/mL, 6 h, wash, 24 h drug-free, unit not given; for DTC50 (concentration causing 50% cidality): 6-h treatment and wash-off
Description: Trypanosomes were washed, enumerated with a Coulter Counter, and transferred into a drug-free HMI-9 medium for 24 h in a 24-well plate (1 × 10^5 cells/mL). After 24 h, cells were enumerated with a Coulter counter (see flow-chart). Data obtained were analyzed using GraphPad Prism to determine DTC25, DTC50, and DTC90 values.
Delayed trypanocidal assay
Mid-logarithmic growth-phase T. b. Lister427 were inoculated into HMI-9 medium (5 × 10^5 cell/mL). Cells were incubated with either 0.1% DMSO (vehicle) or serial dilutions of drug in 24-well plates for 6 h at 37 °C/5% CO2, following which trypanosomes were pelleted (3,000 g, 5 min), rinsed with drug-free HMI-9 medium, and cells enumerated with a Coulter counter. Trypanosomes were then inoculated at 1 × 10^5 cells/mL in 24-well-plates or 384-well plates and cultured for 24 h, after which trypanosomes were checked for viability with a hemocytometer and enumerated with a Coulter counter. Each experiment was performed thrice, and non-linear regression graphs plotted with GraphPad Prism were used to obtain DTC50 values ([Bachovchin et al., 2019]).

[2] = Plasma pharmacokinetics after single oral dose; assay type: in vivo, Swiss Webster mice; settings: Swiss Webster, mouse; for AUC(0-t): female mice values of Table 3, quoted in μM, read-out: AUC0–6h
Description: The plasma concentration and tissue distribution of drugs were determined by Absorption Systems. […] Blood and brain samples were obtained at 1, 2, 4, and 6 h post-dosing, and plasma and brain concentrations of the drug were determined using LC-MS/MS. Stock standards for calibration were prepared in a matrix comprising equal volumes of water and mouse blood containing K2-EDTA as an anticoagulant. Working solutions were prepared in 50:50 acetonitrile–water and added to the matrix to final concentrations of 1,000, 500, 100, 50.0, 10.0, 5.00, 1.00, and 0.500 ng/mL for all compounds. Pharmacokinetic parameters were determined using Phoenix WinNonlin (v8.0) software with sparse sampling. Maximum plasma concentration (Cmax) and the time to reach maximum plasma concentration (tmax) were determined from the four data points. The area under the time concentration curve (AUClast) was calculated using the linear trapezoidal rule with calculation to a 6-h data point. Plasma half-life (t1/2) was calculated from 0.693/slope of the terminal elimination phase. Samples below the limit of detection (0.500 ng/mL) were treated as 0.

[3] = test system: endocytosis of transferrin (Tf) in Trypanosoma brucei; test: Endocytosis of transferrin (flow cytometry); assay type: cell-based; settings: for Effect on endocytosis of Tf / Endocytosis Transferrin: DTC25; for Increase of Tf endocytosis compared to DMSO: DTC25, 6 h, not statistically significant; for Endocytosis Transferrin: Table S3
Description: Cells were washed and resuspended in serum-free medium. Trypanosomes were incubated with fluorescent endocytosis ligands transferrin (Tf) or bovine serum albumin (BSA) for 30 min (37 °C). A flow cytometer was used to detect fluorescence intensity per cell. Propidium iodide (PI) was used to stain and gate out non-viable cells. Histograms present fluorescence intensity of Tf-AF488 (A) or BSA-AF647 (B) for every cell (n > 10,000 for each cargo) in DMSO or drug-treated samples. Points on the scatter plot represent mean fluorescence intensities of Tf (C) or BSA (D) from three biological replicates (calculated with FlowJo). Bars indicate mean ± SD. Student’s t-test was used to evaluate statistical significance of differences in mean intensity of endocytosed ligand in DMSO-treated sample compared to curaxin-treated samples.
Curaxin or DMSO-treated trypanosomes (5 × 10^5/mL) were washed with serum-free HMI-9 medium (500 uL). Trypanosomes were resuspended in serum-free HMI-9 medium (100 μL) supplemented with either transferrin–[…] conjugate (50 μg, Invitrogen, Eugene, OR) or BSA–AlexaFluor647 conjugate (50 μg, Invitrogen, Eugene, OR) for 30 min at 37 °C, 5% CO2. Cells were transferred to an ice-water bath, washed with cold PBS/G at 4 °C (3,000 g for 5 min), resuspended in PBS/G (500 μL) containing propidium iodide (3 μM), and analyzed on a flow cytometer (Beckman Coulter CytoFLEX S). FlowJo software (FlowJo, LLC) was used to gate trypanosomes based on size and shape (forward and side scatter features), and fluorescence intensity of endocytosed protein was measured in viable cells (negative for propidium iodide uptake). FlowJo software was used to determine the mean fluorescence intensity of each cargo in trypanosomes (at least 10,000 events). Data from three independent biological experiments were analyzed with a two-tailed Student’s t-test with unequal variance to determine the possible statistical significance of differences in means of fluorescence intensities of endocytosed cargo.

[4] = 6 h treatment at 5 × 10^5/mL, wash-off, survival tracked 24 h

Q: What does the source list for CC(=O)c1cc2c3cc(C(C)=O)c(O)cc3n(CCCN(C)C)c2cc1O [CBL0174, 1-[6-acetyl-9-[3-(dimethylamino)propyl]-2,7-dihydroxy-carbazol-3-yl]ethanone]?
A: Protein Synthesis affected [1]: No; Effect on protein synthesis [1]: did not prevent mRNA translation; Residual Translation [1]: 0.94; DTC25 (Figure 1) (T. brucei Lister427): 48; DTC50 (Figure 1) (T. brucei Lister427): 110; DTC90 (Figure 1) (T. brucei Lister427): 600; DTC50 (concentration causing 50% cidality) (T. brucei Lister427): 0.11 µM; DTC50 T. brucei Lister427 (T. brucei Lister427; [4]): 110 nM; DTC90 T. brucei Lister427 (T. brucei Lister427; [4]): 600 nM; AUC(0-t) [2]: 3.14 ± 0.25 µM·h; Tmax ([2]; female): 1 h; half-life ([2]; female): 3.61 h; Tmax ([2]; male): 1 h; half-life ([2]; male): 4.33 h; Fold increase of Tf endocytosis compared to DMSO [3]: 1.39; Effect on endocytosis of Tf [3]: did not promote endocytosis of Tf; Increase of Tf endocytosis compared to DMSO [3]: 39%; Endocytosis Transferrin [3]: Activated

Q: For CC(=O)c1cc2c3cc(C(C)=O)c(O)cc3n(CCNC(C)C)c2cc1O [CBL0187, 1-[6-acetyl-2,7-dihydroxy-9-[2-(isopropylamino)ethyl]carbazol-3-yl]ethanone], which “Protein Synthesis affected” value [1] is on record?
A: No

Q: What about the “Effect on protein synthesis” value [1] of the same molecule?
A: inhibited protein synthesis

Q: And the “Residual Translation” value [1]?
A: 0.72

Q: And the “DTC25 (Figure 1)” value (T. brucei Lister427)?
A: 54

Q: What about the “DTC50 (Figure 1)” value (T. brucei Lister427) of the same molecule?
A: 110

Q: What about the “DTC90 (Figure 1)” value (T. brucei Lister427) of the same molecule?
A: 550

Q: What about the “DTC50 (concentration causing 50% cidality)” value (T. brucei Lister427) of the same molecule?
A: 0.11 µM

Q: And the “DTC25 T. brucei Lister427” value (T. brucei Lister427; [4])?
A: 54 nM

Q: What about the “DTC50 T. brucei Lister427” value (T. brucei Lister427; [4]) of the same molecule?
A: 110 nM

Q: And the “DTC90 T. brucei Lister427” value (T. brucei Lister427; [4])?
A: 550 nM

Q: What about the AUC(0-t) [2] of the same molecule?
A: 2.95 ± 0.18 µM·h

Q: What about the Tmax ([2]; female) of the same molecule?
A: 1.5 ± 0.7 h

Q: And the half-life ([2]; female)?
A: > 6 h

Q: What about the Tmax ([2]; male) of the same molecule?
A: 2 h

Q: What about the half-life ([2]; male) of the same molecule?
A: > 6 h

Q: And the “Fold increase of Tf endocytosis compared to DMSO” value [3]?
A: 1.31

Q: What about the “Effect on endocytosis of Tf” value [3] of the same molecule?
A: had no effect on the pathway

Q: And the “Increase of Tf endocytosis compared to DMSO” value [3]?
A: 30.9%

Q: What about the “Endocytosis Transferrin” value [3] of the same molecule?
A: Activated
